For five compounds, IC50 results are on record in BindingDB's records for doi:10.1021/acs.biochem.6b00338 (University of California Santa Cruz, 2016).

What is called IC50 is the concentration that gives 50% inhibition. High values mean a need for much substance, low ones inhibition by little substance.

The target in this experiment is T1, Arachidonate 15-lipoxygenase (Pseudomonas aeruginosa, UniProt Q9I4G8).
T1 sequence (Q9I4G8 whole entry): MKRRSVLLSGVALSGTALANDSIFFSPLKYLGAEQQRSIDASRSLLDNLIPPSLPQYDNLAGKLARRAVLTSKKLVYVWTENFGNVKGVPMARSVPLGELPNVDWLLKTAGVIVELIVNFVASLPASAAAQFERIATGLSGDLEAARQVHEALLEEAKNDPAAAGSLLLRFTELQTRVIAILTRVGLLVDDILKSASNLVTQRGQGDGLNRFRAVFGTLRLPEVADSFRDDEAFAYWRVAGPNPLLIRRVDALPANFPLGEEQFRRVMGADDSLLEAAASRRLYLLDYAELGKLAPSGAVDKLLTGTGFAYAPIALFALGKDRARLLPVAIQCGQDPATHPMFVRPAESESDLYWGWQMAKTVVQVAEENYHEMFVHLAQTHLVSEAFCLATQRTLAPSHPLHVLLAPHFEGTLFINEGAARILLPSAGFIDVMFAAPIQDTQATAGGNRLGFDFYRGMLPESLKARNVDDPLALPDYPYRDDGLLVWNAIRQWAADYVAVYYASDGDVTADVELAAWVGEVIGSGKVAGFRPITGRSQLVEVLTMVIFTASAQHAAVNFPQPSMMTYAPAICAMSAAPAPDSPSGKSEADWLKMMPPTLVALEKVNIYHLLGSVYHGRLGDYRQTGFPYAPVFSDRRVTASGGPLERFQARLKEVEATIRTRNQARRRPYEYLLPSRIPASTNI
Put plainly: LoxA Selectivity Assay. To be noted: pH 7; 25 °C. The procedure:
The one-point inhibition percentages were determined for human LOX inhibitors by following the formation of the conjugated diene product at 234 nm (ε = 25,000 M−1 cm−1) at an inhibitor concentration of 25 μM. All reaction mixtures were 2 mL in volume and constantly stirred using a magnetic stir bar at room temperature (22 °C) with 7 nM LoxA. Reactions were conducted in 25 mM HEPES buffer (pH 7.0), 0.01% Triton X-100, and 10 μM AA. The concentration of AA was quantitatively determined by allowing the enzymatic reaction to go to completion. Confirmed hitswere then screened against the human isozymes 5-LOX, 15-LOX-1, 15-LOX-2, and 12-LOX for specificity.
Consider `O=C(OCC#CCSc1nnc(-c2cccc3ccccc23)o1)c1ccccc1` [4-(5-(Naphthalen-1-yl)-1,3,4-oxadiazol-2-ylthio)but-2-ynyl benzoate], for which 10 nM corresponded to half-maximal inhibition (IC50). `CC(Cc1ccc(O)c(O)c1)C(C)Cc1ccc(O)c(O)c1` (stereo not given) [LOX inhibitor, N/A] gave an IC50 of 500 nM. The compound `CCCCCCc1ccc(Oc2ccccc2Cl)c(O)c1` [PT91] yielded an IC50 of 2600 nM. The compound `CCCCCCc1ccc(Oc2ccccc2F)c(O)c1` [PT113] showed an IC50 of 1000 nM. Regarding `CCCCCCc1ccn(Cc2ccccc2C)c(=O)c1` [PT171], half-maximal inhibition (IC50) was put at 520 nM.
